The values that follow come from patent publication US4990617A, “N-oxide prodrug derivatives of 3-hydroxy morphinans and partial morphinans and derivatives” (E. I. Du Pont de Nemours and Company, priority 1989, dated 1991).

Where a name gives a salt, the structure may show the parent alone. Read-outs that look alike come from different tables or passages of the source.

Broadly, the bioavailability is dose-corrected exposure relative to a reference, in per cent.

The conditions of series [1]: literature, cited from earlier work; for therapeutic index: relative to corresponding tertiary amines.
The nature of series [2]: Plasma naloxone concentration after oral dosing in dogs. Type of series: in vivo. As to conditions: dog; for concentration at 0.5 h / concentration at 1 h / concentration at 2 h / concentration at 3 h / concentration at 4 h / concentration at 6 h / concentration at 8 h: in vivo, equimolar oral doses, read-out: Average Plasma Naloxone Conc. The method, then:
(§1) Among the experiments used to evaluate the N-oxide prodrugs of the instant invention were measurements of their reduction rates in vitro by various biological media from rats, dogs, and humans, and drug bioavailability in rats and dogs administered oral doses of the prodrug. Drug concentration was determined after solvent extraction, using high pressure liquid chromatography analytical procedures.
(§2) Rats and dogs were administered the parent drug intravenously and orally, and the prodrugs were administered orally. Usually, doses were administered as aqueous solutions prepared immediately before dosing. Plasma was collected and frozen until analysis of drug concentration. The area under the plasma drug concentration versus time curve (AUC) was calculated for each animal. […]. Relative bioavailability (RB) of parent drug was determined by comparing the bioavailability from orally administered prodrug F(pro) with the bioavailability from orally administered parent drug F(drug). [formula]

Series [3] can be described thus: Oral bioavailability in rats. Type of series: in vivo. As to conditions: plasma; rat, oral nalbuphine; read-out: F(DRUG), nalbuphine bioavailability from orally administered parent drug. The method, then: as §1
(§3) Rats and dogs were administered the parent drug intravenously and orally, and the prodrugs were administered orally. Usually, doses were administered as aqueous solutions prepared immediately before dosing. Plasma was collected and frozen until analysis of drug concentration. The area under the plasma drug concentration versus time curve (AUC) was calculated for each animal. Bioavailability (F) was estimated by: [formula] F represents the percentage of the administered dose absorbed into plasma. Relative bioavailability (RB) of parent drug was determined by comparing the bioavailability from orally administered prodrug F(pro) with the bioavailability from orally administered parent drug F(drug). [formula]

Series [4] can be described thus: Oral bioavailability in dogs. It is filed as in vivo. As to conditions: plasma, dog, read-out: oral bioavailability of nalbuphine. The method, then:
as §1, §3

For series [5] the following is noted: literature, cited from earlier work.
A short description of series [6]: Plasma naltrexone concentration after oral dosing in dogs. Type of series: in vivo. The settings on record: dog, normalized for dose. Here is the method:
as §1, §2

The conditions of series [7]: administered to rabbits; literature; cited from earlier work.
For series [8] the following is noted: administered to rats; literature; cited from earlier work.
For series [9] the following is noted: administered to mice; literature; cited from earlier work.
For series [10] the following is noted: literature, cited from earlier work. This is another data set of the same source.
Series [11] in a line: In vitro reduction of N-oxide to drug in rat liver homogenate. It is filed as in vitro ADME. The settings on record: in 3 minutes, rat liver homogenate (25%), 37° C., read-out: Conversion of nalbuphine N-oxide to nalbuphine. Here is the method:
as §1
(§4) Prodrug was added to fresh biological medium to a concentration of 0.28 μM, incubated at 37° C., and the rate of drug appearance was measured.

The nature of series [12]: In vitro reduction of N-oxide to drug in human plasma. Type of series: in vitro ADME. As to conditions: 37° C., 0.28 μM. The method, then:
as §1, §4

Series [13] in a line: In vitro reduction of N-oxide to drug in dog plasma. Type of series: in vitro ADME. The settings on record: 37° C., read-out: t1/2 of conversion of nalbuphine N-oxide to nalbuphine (converted). Here is the method: as §1, §4
The nature of series [14]: In vitro reduction of N-oxide to drug in rat plasma. Type of series: in vitro ADME. The settings on record: 37° C., read-out: t1/2 of conversion of nalbuphine N-oxide to nalbuphine (converted). Here is the method:
as §1, §4

A short description of series [15]: In vitro reduction of N-oxide to drug in rat intestine homogenate. The settings on record: in 10 minutes, rat intestine homogenate (25%), 37° C., read-out: Conversion of nalbuphine N-oxide to nalbuphine. It is filed as in vitro ADME. The method, then: as §1, §4
For series [16] the following is noted: rabbits administered oxycodone subcutaneously; literature; cited from earlier work.
For series [17] the following is noted: literature; cited from earlier work.
For series [18] the following is noted: background, cited from earlier work.
The conditions of series [19]: guinea pig liver microsomal preparation; literature; cited from earlier work. Background: Liver microsomes are vesicles of endoplasmic reticulum, rich in cytochrome P450 enzymes.

`COc1ccc2c(c1)[C@@]13CCCC[C@H]1[C@@H](C2)[N+](C)([O-])CC3` (stereo partly drawn) [3-methoxy-N-methylmorphinan N-oxide]: the therapeutic index entry in [1] was “higher therapeutic index than the corresponding tertiary amines”.
On to `C=CC[N+]1([O-])CC[C@]23c4c5ccc(O)c4O[C@H]2C(=O)CC[C@@]3(O)[C@H]1C5` (stereo partly drawn) [Naloxone N-oxide, naloxone N-oxide], for which the “Oral naloxone bioavailability when administered as the N-oxide, relative to naloxone” value in series [2] (oral) was “improved”. For the same molecule, in series [2], the concentration at 0.5 h was found to be 947 ng/mL, the concentration at 1 h is 1220 ng/mL, the concentration at 2 h came to 797 ng/mL and the concentration at 3 h turned out to be 289 ng/mL. Besides, in series [2], the concentration at 4 h worked out at 107 ng/mL, the concentration at 6 h came to 22 ng/mL and the concentration at 8 h was 6 ng/mL.
Consider `C[N+]1([O-])CC[C@]23CCCC[C@H]2[C@H]1Cc1ccc(O)cc13` (stereo partly drawn) [3-hydroxy-N-methylmorphinan N-oxide], for which the therapeutic index entry in series [1] is “higher therapeutic index than the corresponding tertiary amines”.
For `Oc1ccc2c3c1O[C@H]1[C@@H](O)CC[C@@]4(O)[C@@H](C2)N(CC2CCC2)CC[C@]314` [Nalbuphine, (-)-17-(Cyclobutylmethyl)-4,5α-epoxymorphinan-3,6α,14-triol], the bioavailability in [3] stood at 2.7 ± 0.4%; in series [4] it was 5.4%.
As to `C[N+]1([O-])CCC[C@H]1c1cccnc1` (stereo partly drawn) [nicotine-1'-N-oxide], in series [5] (man, oral versus intravenous), the reduction to nicotine entry is reported as “partially reduced to nicotine in man after oral administration, but not after intravenous administration”. The first-pass phenomenon result in series [5] (oral) was “substantially avoids the first-pass phenomenon seen with oral nicotine”.
With `O=C1CC[C@@]2(O)[C@H]3Cc4ccc(O)c5c4[C@@]2(CC[N+]3([O-])CC2CC2)[C@H]1O5` (stereo partly drawn) [Naltrexone N-oxide], the “Average Plasma Naltrexone Conc.” value in [6] (0.25 hours) amounted to 424 ng/mL; in series [6] (0.5 hours), 752 ng/mL; in series [6] (1 hour) it was 713 ng/mL; in [6] (1.5 hours) it was 559 ng/mL; in series [6] (2 hours), 484 ng/mL; in series [6] (3 hours), 251 ng/mL. In addition, the “Average Plasma Naltrexone Conc.” value in series [6] (4 hours) worked out at 110 ng/mL; in [6] (6 hours) it was 24 ng/mL; in series [6] (8 hours), 8 ng/mL.
On to `CCC(=O)OC1(c2ccccc2)CC[N+](C)([O-])CC1` (stereo not drawn) [N-oxide of 1-methyl-4-phenyl-4-piperidinol propionate], for which the “reduction of N-oxide to tertiary amine” value in series [7], in [8] and in [9] was “partially reduced to the tertiary amine” in each case.
`CC[N+]([O-])(CC)CC(=O)N1CCN2C(=O)c3ccccc3C12c1ccccc1` (stereo not drawn): the pharmacological properties result in series [10] (Swiss Patent No. 481,124) was “analgesic, sedative, antitussive, hypotensive, and spasmolytic properties”.
For the molecule `[O-][N+]1(CC2CCC2)CC[C@]23c4c5ccc(O)c4O[C@H]2[C@@H](O)CC[C@@]3(O)[C@H]1C5` (stereo partly drawn) [Nalbuphine N-oxide], the metabolised at 0.05 h, 0.28 µM in [11] stood at 100%. Also, the “Rate of conversion of nalbuphine N-oxide to nalbuphine” value in series [12] is “negligible”. Further, the half-life at 0.28 µM in series [13] is 53.7 h; in [14] it was 6 h. Besides, the metabolised at 10 min, 0.28 µM in [15] was found to be 100%.
`COc1ccc2c3c1O[C@H]1C(=O)CC[C@@]4(O)[C@@H](C2)[N+](C)([O-])CC[C@]314` (stereo partly drawn) [oxycodone N-oxide]: the “form of metabolite in urine” value in series [16] is on record as “found only in the free, unconjugated form”.
As for `C[N+]1([O-])CC[C@]23c4c5ccc(O)c4O[C@H]2[C@@H](O)C=C[C@H]3[C@H]1C5` (stereo partly drawn) [Morphine N-oxide], in series [1], the toxicity result is on record as “somewhat lower toxicity than morphine”. In addition, the analgesic activity entry in series [10] was “either less active or inactive as an analgesic”. Besides, in series [17], the antitussive activity entry is “effective antitussive”. Besides, the “reduction of N-oxide to tertiary amine” value in series [8] is “partially reduced to morphine”.
On to `O=C1CC[C@@]2(O)[C@H]3Cc4ccc(O)c5c4[C@@]2(CCN3CC2CC2)[C@H]1O5` [Naltrexone, (-)-17-(Cyclopropylmethyl)-4,5α-epoxy-3,14-dihydroxymorphinan-6-one], for which the “Average Plasma Naltrexone Conc.” value in series [6] (0.25 hours) stood at 9 ng/mL; in series [6] (0.5 hours), 9 ng/mL; in [6] (1 hour) it was 4 ng/mL; in series [6] (1.5 hours), 4 ng/mL; in [6] (2 hours) it was 0 ng/mL; in [6] (3 hours) it was 0 ng/mL. Besides, the “Average Plasma Naltrexone Conc.” value in [6] (4 hours), in series [6] (6 hours) and in series [6] (8 hours) was 0 ng/mL each time.
Take `C=CCN1CC[C@]23c4c5ccc(O)c4O[C@H]2C(=O)CC[C@@]3(O)[C@H]1C5` [Naloxone, (-)-17-Allyl-4,5α-epoxy-3,14-dihydroxymorphinan-6-one]: in [2], the concentration at 0.5 h amounted to 451 ng/mL, the concentration at 1 h came out at 176 ng/mL, the concentration at 2 h is 65 ng/mL and the concentration at 3 h came to 30 ng/mL. In addition, in series [2], the concentration at 4 h is 10 ng/mL, the concentration at 6 h was 10 ng/mL and the concentration at 8 h is 5 ng/mL.
On to `CCC(=O)OC1(c2ccccc2)CC[N+](C)([O-])CC1` (stereo not drawn) [N-oxide of 1-methyl-4-phenyl-4-propionoxypiperidine HCl], for which the toxicity entry in [1] is recorded as “Toxicity was also less”. The “duration of analgesic activity” value in series [10] (relative to dolantin HCl) is reported as “of longer duration”. In addition, the analgesic activity entry in series [10] is recorded as “analgesic activity equal to that of dolantin HCl”.
With `COc1ccc2c3c1O[C@H]1C(=O)CC[C@@]4(O)[C@@H](C2)N(C)CC[C@]314` [Oxycodone], the oral potency entry in series [18] was “similarly good oral potency”.
Take 3-methyl-morphine [Codeine]: the “conversion to N-oxide” value in [19] is reported as “converted in part to the corresponding N-oxides”. Also, in [8], the “metabolism to N-oxide” value is “partially metabolized to the N-oxides”. The “oral:parenteral potency ratio” value in series [18] (relative to morphine) is recorded as “much higher oral:parenteral potency ratio than morphine”.
